Data taken from ChEMBL document CHEMBL3244089, “Structure-activity studies on hallucinogenic amphetamines using molecular connectivity” (1977).

Species: Homo sapiens
Test: Hallucinogenic activity in human relative to mescaline
Assay type: functional

Compound | Ratio
CCOc1cc2c(cc1CC(C)N)OCO2 (stereo not given) | 7
CN(C)CCc1c[nH]c2cc(O)ccc12 | 25
COc1c(CCN)ccc2c1OCO2 | 5
CN(C)CCc1c[nH]c2cccc(O)c12 [PSILOCIN] | 32
COc1cc(OC)c(OC)cc1CCN | 1
COc1c(CC(C)N)ccc2c1OCO2 (stereo not given) | 1
COc1ccc(CC(C)N)cc1OC (stereo not given) | 2
COc1ccc(CCN)cc1 | 1
COc1cc(CCN)c2c(c1)OCO2 | 1
COc1ccc(CC(C)N)c(OC)c1OC (stereo not given) | 2
COc1ccc(CCN)cc1OC | 0.2
CCOc1cc(CC(C)N)c(OC)cc1OC (stereo not given) | 7

Species: Homo sapiens
Test: Hallucinogenic activity in human
Assay type: functional

Compound | log(activity)
COc1cc(CC(C)N)c(OC)cc1Br (stereo not given) [BROLAMFETAMINE] | 2.71
COc1cc(CC(C)N)c(OC)c(OC)c1 (stereo not given) | 0.63
COc1ccc(OC)c(CC(C)N)c1 (stereo not given) | 0.87
COc1c(CC(C)N)cc2c(c1OC)OCO2 (stereo not given) | 0.75
CC(N)Cc1ccc2c(c1)OCO2 (stereo not given) [TENAMFETAMINE] | 0.41
CCCCCc1cc(OC)c(CC(C)N)cc1OC (stereo not given) | 1.09
COc1ccc(OC)c(OC)c1CC(C)N (stereo not given) | 1.14
COc1ccc(CC(C)N)c2c1OCO2 (stereo not given) | 0.48
COc1ccc(CC(C)N)c(OC)c1 (stereo not given) | 0.67
CCOc1cc(OC)c(CC(C)N)cc1OC (stereo not given) | 1.22
CCCCc1cc(OC)c(CC(C)N)cc1OC (stereo not given) | 1.63
COc1c(CC(C)N)ccc2c1OCO2 (stereo not given) | 1
COc1ccc(CC(C)N)cc1 (stereo not given) [PARA-METHOXYAMPHETAMINE] | 0.59
COc1cc(CC(C)N)c(OC)cc1C (stereo not given) [DOM] | 1.89
COc1cc(CC(C)N)c(OC)c2c1OCO2 (stereo not given) | 1.13
COc1cc(OC)c(OC)cc1CC(C)N (stereo not given) | 1.26
COc1cc2c(cc1CC(C)N)OCO2 (stereo not given) | 1.08
COc1cc(CC(C)N)cc2c1OCO2 (stereo not given) | 0.43
COc1cc(OC)c(CC(C)N)c(OC)c1 (stereo not given) | 1.03
COc1cc(CC(C)N)c(OC)c(OC)c1OC (stereo not given) | 0.86
CCCc1cc(OC)c(CC(C)N)cc1OC (stereo not given) | 1.94
COc1cc(CC(C)N)cc(OC)c1OC (stereo not given) | 0.37
CCc1cc(OC)c(CC(C)N)cc1OC (stereo not given) | 2.01
